The values that follow come from paper PMC9115111, “Metalloprotease Gp63-Targeting Novel Glycoside Exhibits Potential Antileishmanial Activity” (Frontiers in Cellular and Infection Microbiology, 2022).

Data set [1] concerns L. donovani promastigotes (AG83 strain). Description: LDH cytotoxicity assay on promastigotes, AG83 strain. Format: cell-based, Leishmania donovani. As to the method: Promastigote forms of L. donovani (MHOM/IN/1983/AG83) were cultured at 26°C in M199 (GIBCO, India), pH 7.4, supplemented with 10% (v/v) inactivated fetal bovine serum (FBS, GIBCO, India) and 0.02 mg/ml gentamycin (Life Technologies, USA). The clinical isolate of PKDL, BS12, was obtained as a gift from Prof. Mitali Chatterjee [Department of Pharmacology, Institute of Postgraduate Medical Education and Research (IPGMER), Kolkata, India]. BS12 was routinely cultured at 22°C in M199 (GIBCO, India) with 100 U/ml penicillin-streptomycin (Gibco, Invitrogen, Thermo Fisher Scientific, NY, USA), 8 μM hemin (4 mM stock made in 50% triethanolamine) (Sigma, USA), 25 mM 4-(2-hydroxyethyl)-1-piperazineethanesulfonic acid (HEPES), supplemented with 10% heat-inactivated FBS (GIBCO, India). Cultures were maintained between 10^6 and 10^7 cells/ml for continuous exponential growth. In addition, 1 × 10^6 cells/ml parasite count was constantly maintained for all the experiments ([Ramu et al., 2017]).
(§1) All the compounds were dissolved in dimethyl sulfoxide (DMSO) (Sigma-Aldrich) for 1 mM stock solution and were screened against promastigotes at a concentration of 5 µM. For Glycosides (Gly) 2, 6, and 8, a range of concentrations starting from 100 nM to 100 µM were screened against promastigote forms of parasite and mammalian cells. Parasites (AG83 and PKDL strain) treated with amphotericin B (3 µg/ml) (Sigma-Aldrich) were maintained as the positive control.
AG83 strain of L. donovani were exposed to various Gly compound concentrations (100 nM–100 µM) in a 96-well microtiter plate (100 µl/well volume) and were incubated for 72 h at 26°C. Finally, lactate dehydrogenase (LDH) cytotoxic assay was performed as per standard protocol (CytoTox 96 Non-Radioactive Cytotoxicity Assay-Promega, USA). The percent cytotoxicity of test compounds was calculated by normalizing with amphotericin B as 100%. Further percentage growth inhibition was calculated using the formula:
% Growth Inhibition = Gly treated LDH activity- Spontaneous LDH activity
/Maximum LDH activity- Spontaneous LDH activity * 100
As per the formula, the spontaneous LDH Activity = activity of the untreated cells and the maximum LDH activity = activity of the amphotericin B-treated cells. IC50 value for Gly2, 6, and 8 treated was generated for AG83 and PKDL strain of L. donovani using sigmoidal dose–response model with nonlinear regression tool ([Ramu et al., 2017]).

Data set [2] has as its system J774.A1 murine macrophage cells. Nature of the data set: MTT cell viability assay on macrophages. Format: cell-based. As to the method:
(§2) The J774.A1 murine macrophage cells were grown in Roswell Park Memorial Institute (RPMI) 1640 medium in the presence of 10% (v/v) FBS and 100 U/ml penicillin−100 µg/ml streptomycin (Gibco, Invitrogen, Thermo Fisher Scientific, NY, USA) at 37°C (humidified) and 5% CO2. […] Madin–Darby canine kidney (MDCK) cells were obtained from the National Centre for Cell Science, Pune, India. MDCK cells were derived from the kidney tissue of an adult female Cocker Spaniel. These were grown in Dulbecco’s modified Eagle’s minimal essential medium (DMEM) in the presence of 10% (v/v) FBS and 100 U/ml penicillin−100 µg/ml streptomycin (Gibco, Invitrogen, Thermo Fisher Scientific, NY, USA) at 37°C (humidified) and 5% CO2 ([Ayana et al., 2018]; [Shivappagowdar et al., 2021]).
as §1
(§3) To evaluate the cytotoxic effects of 12 compounds on L. donovani promastigotes, LDH assay was performed. This assay involves the reduction of tetrazolium salts to formazan during LDH-mediated catalysis of lactate to pyruvate, which can be detected at […]. Rate of formazan formation is proportional to the release of LDH through damaged cell membranes. For the preliminary screening, the promastigotes were incubated with 12 compounds at a single concentration of 5 µM for a period of 72 h, and the released LDH was estimated ( Supplementary Figure S1A ). Amphotericin B-treated promastigotes were taken as the positive control. […] Having observed the antileishmanial effect of Gly2 on growth and proliferation of promastigotes, we next investigated the cytotoxicity of Gly2 on mammalian cells (MDCK, J774.1A) through MTT (3-(4, 5-dimethylthiazolyl-2)-2, 5-diphenyltetrazolium bromide) cell viability assay ( Supplementary Figures S1B, C ). […] The CC50 values of Gly2 analog was in the micromolar range. The selectivity index (SI) for the compound was calculated as the ratio between cytotoxicity (CC50) and activity (IC50) against promastigotes ( Table 1 ).
(Formazan colour is commonly taken as a measure of viable cells.)

The nature of data set [3]: MTT cell viability assay on macrophages. It counts as cell-based, murine. The note with it: mouse, J774.A1 macrophage cells; Table 1; macrophages. As for the experimental part:
as §2, §1, §3

The test system of data set [4] is L. donovani promastigotes. Nature of the data set: Hoechst/PI live/dead dual staining of promastigotes. It counts as cell-based, Leishmania donovani. The note with it: 5 µM, 72 h. As to the method: The toxic effect of the three compounds, Gly2, 6, and 8 on promastigotes at 5 µM >IC50 concentration was measured by Hoechst and propidium iodide (PI) double staining. […], parasites were harvested, washed in 0.01 M PBS (pH = 7.4), and stained with Hoechst 33258 (1 µg/ml) (Life Technologies, USA) and PI (5 µg/ml) (Life Technologies, USA) followed by incubation for a period of 20 min at 37°C. Subsequently, cells were washed for excessive stain removal and visualized using fluorescence microscope with 510–560-nm filter block for PI red fluorescence and excitation/emission spectra at 361/497 for Hoechst ([López-Arencibia et al., 2015]).

Data set [5] deals with L. donovani intracellular amastigotes in J774.A1 macrophages. Nature of the data set: Intramacrophage amastigote assay (Giemsa staining, J774.A1). It counts as cell-based, Leishmania donovani. The note with it: treated at IC50 concentration, 24 h; untreated control ~5. As to the method: For evaluating the efficacy of compounds against intramacrophage amastigotes, Giemsa staining (Sigma-Aldrich) was performed. J774.A1 murine macrophage cells were plated at a cell density of 5 × 10^5 cell/well in a 6-well flat bottom plate. The cells were infected with late-stage L. donovani, rich in promastigotes at a ratio of 10:1. After 6 h, uninfected promastigotes were washed off with PBS.

Setting [6] is: Table 1, activity against promastigotes.
Setting [7] is: Leishmania donovani, AG83 promastigotes, LDH assay 72 h, sigmoidal curve, normalised to amphotericin B 3 µg/ml as 100%.
Setting [8] is: Leishmania donovani, Table 1, activity against promastigotes.

As to `CCOC1O[C@H](CO)[C@@H](O)[C@H](O)[C@H]1NC(C)=O` (stereo partly drawn) [Gly1, ethyl glycoside N-Acetyl-D-glucosamine], the concentration for half-maximal inhibition (IC50) (usually the concentration at which inhibition is half-maximal) in data set [1] (setting [6]) was found to be 65 µM. Further, the 50% cytotoxic concentration (CC50) – broadly, the concentration giving 50% cytotoxicity – in data set [2] is 248 µM.
The corresponding values for `CCCCCCOC1O[C@H](CO)[C@@H](O)[C@H](O)[C@H]1O` (stereo partly shown) [Gly3] are 12.7 µM and 1680 µM.
The corresponding values for `CCCCOC1O[C@H](COC(C)=O)[C@@H](OC(C)=O)[C@H](OC(C)=O)[C@H]1OC(C)=O` (stereo partly shown) [Gly4] are 4.6 µM and 167 µM.
The matching figures for `CCCCCCOC1O[C@H](COC(C)=O)[C@@H](OC(C)=O)[C@H](OC(C)=O)[C@H]1OC(C)=O` (stereo partly shown) [Gly5]: 5.97 µM and 159 µM.
As for `CC(=O)OC[C@H]1OC(OCCC(C)C)[C@H](OC(C)=O)[C@@H](OC(C)=O)[C@@H]1OC(C)=O` (stereo partly shown) [Gly6], the figures for the concentration for half-maximal inhibition (IC50) in data set [1] (setting [7]) and in data set [1] (setting [8]) were 2.94 µM and 3.4 µM, respectively. For the same compound, the midpoint of cytotoxicity in data set [3], the CC50, lay at 1030 µM. Further, in data set [4], the “dead parasites (PI positive)” value is on record as ~ 33.72%. The “number of amastigotes per infected macrophage” value in data set [5] is given as ~ 3 amastigotes/macrophages.
Compound `CCOC1O[C@H](COC(C)=O)[C@@H](OC(C)=O)[C@H](OC(C)=O)[C@H]1OC(C)=O` (stereo partly shown) [Gly7] registered a half-maximal inhibitory concentration (IC50) in data set [1] (setting [6]) of 77 µM. Moreover, the CC50 in data set [2] was 299 µM.
For `CCCOC1O[C@H](COC(C)=O)[C@@H](OC(C)=O)[C@H](OC(C)=O)[C@H]1OC(C)=O` (stereo partly drawn) [Gly8, (2R,3R,4S,5R)-2-(acetoxymethyl)-6-propoxytetrahydro-2H-pyran-3,4,5-triyl triacetate], the results for the concentration for half-maximal inhibition (IC50) in data set [1] (setting [7]) and in data set [1] (setting [8]) were 1.61 µM and 1.6 µM, respectively. This compound came in with a CC50 in data set [3] of 959 µM. Besides, the “dead parasites (PI positive)” value in data set [4] was found to be 75.47%. In addition, the “number of amastigotes per infected macrophage” value in data set [5] is roughly 2 amastigotes/macrophages.
For `CC(=O)OC[C@H]1OC(OC(C)C)[C@H](OC(C)=O)[C@@H](OC(C)=O)[C@@H]1OC(C)=O` (stereo partly shown) [Gly9], the IC50 in data set [1] (setting [6]) was found to be 36 µM. The compound also displayed a 50% cytotoxic concentration (CC50) in data set [2] of 256 µM.
The corresponding values for `CCCOC1O[C@H](COC(C)=O)[C@@H](OC(C)=O)[C@H](OC(C)=O)[C@H]1NC(C)=O` (stereo partly shown) [Gly10] are 25.2 µM and 239 µM.
The matching figures for `CC(=O)N[C@H]1[C@@H](OCCC(C)C)O[C@H](COC(C)=O)[C@@H](OC(C)=O)[C@@H]1OC(C)=O` [Gly11]: 43 µM and 179 µM.
On to `CCCCO[C@H]1O[C@H](COC(C)=O)[C@@H](OC(C)=O)[C@H](OC(C)=O)[C@H]1NC(C)=O` [Gly12], for which, in data set [1] (setting [6]), the 50% inhibitory concentration (IC50) was 95 µM. The 50% cytotoxic concentration (CC50) in data set [2] worked out at 279 µM.
